Laboratory results published in US20260021061A1, “ARIADNE AND ANALOGS FOR THE TREATMENT OF NEUROLOGICAL AND NEUROMUSCLAR DISORDERS” (priority 2022, published 2026).

Legend:
[1] = test system: Calcium Channel L-Type, Dihydropyridine; assay: SafetyScreen44 214600; assay type: binding, rat; settings: 10 μM; [3H]Nitrendipine; cerebral cortex
Method: (§1) A broad screen of 44 molecular targets (SafetyScreen44, Eurofins-Panlabs) for Ariadne were performed, which includes G protein-coupled receptors, steroid nuclear receptors, ion channels, neurotransmitter transporters, and metabolic and signaling enzymes. Only two molecular targets, 5-HT2A and 5-HT2B receptors, emerged above the positive hit threshold, defined as 50% displacement of standard radioligands by 10 uM concentration of Ariadne (FIG. 1b, and Table 1).
(§2) For species, “H”=human, “R”=rat. Test compound screened at all targets at concentration of 10 μM.

Sodium Channel, Site 2 = assay: SafetyScreen44 279510; assay type: binding, human; settings: 10 μM; [3H]Batrachotoxinin; recombinant
Method: as §1, §2

Histamine H2 = target: T1, Histamine H2 (Homo sapiens, UniProt P25021); assay: SafetyScreen44 239710; assay type: binding; settings: 10 μM; [125I]Aminopotentidine; recombinant
T1 construct: purchased Eurofins-Panlabs (contract screen SafetyScreen44) assay ID 239710
T1 sequence (P25021 whole entry): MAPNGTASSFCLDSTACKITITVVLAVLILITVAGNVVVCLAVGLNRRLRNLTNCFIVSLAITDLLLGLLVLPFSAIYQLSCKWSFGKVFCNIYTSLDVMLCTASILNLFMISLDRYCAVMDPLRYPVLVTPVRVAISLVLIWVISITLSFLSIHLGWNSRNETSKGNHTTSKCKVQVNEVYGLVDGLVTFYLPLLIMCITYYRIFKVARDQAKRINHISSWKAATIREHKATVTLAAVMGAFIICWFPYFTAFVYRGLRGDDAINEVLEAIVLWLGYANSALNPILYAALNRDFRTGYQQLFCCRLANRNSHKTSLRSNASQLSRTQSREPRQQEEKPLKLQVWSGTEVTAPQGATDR
Method: as §1, §2

Muscarinic M2 = target: T2, Muscarinic M2 (Homo sapiens, UniProt P08172); assay: SafetyScreen44 252710; assay type: binding; settings: 10 μM; [3H]N-Methylscopolamine; recombinant
T2 construct: purchased Eurofins-Panlabs (contract screen SafetyScreen44) assay ID 252710
T2 sequence (P08172 whole entry): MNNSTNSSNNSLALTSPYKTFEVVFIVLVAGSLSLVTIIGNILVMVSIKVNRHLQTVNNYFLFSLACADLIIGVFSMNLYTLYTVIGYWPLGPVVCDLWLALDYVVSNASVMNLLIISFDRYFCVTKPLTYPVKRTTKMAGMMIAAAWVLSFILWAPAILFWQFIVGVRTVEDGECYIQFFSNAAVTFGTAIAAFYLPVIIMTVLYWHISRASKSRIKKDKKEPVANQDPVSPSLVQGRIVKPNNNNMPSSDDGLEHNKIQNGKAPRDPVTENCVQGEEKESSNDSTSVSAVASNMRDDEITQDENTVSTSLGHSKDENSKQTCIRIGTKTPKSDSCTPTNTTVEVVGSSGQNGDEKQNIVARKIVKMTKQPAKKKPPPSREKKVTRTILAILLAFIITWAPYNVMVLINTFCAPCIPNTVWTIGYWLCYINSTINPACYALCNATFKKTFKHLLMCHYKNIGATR
Method: as §1, §2

Potassium Channel [KA] = assay: SafetyScreen44 265510; assay type: binding, rat; settings: 10 μM; [125I]alpha-Dendrotoxin; cerebral cortex
Method: as §1, §2

Adrenergic β1 = target: T3, Adrenergic β1 (Homo sapiens, UniProt P08588); assay: SafetyScreen44 204010; assay type: binding; settings: 10 μM; [125I]Cyanopindolol; recombinant
T3 construct: Eurofins-Panlabs (contract screen) 204010
T3 sequence (P08588 whole entry): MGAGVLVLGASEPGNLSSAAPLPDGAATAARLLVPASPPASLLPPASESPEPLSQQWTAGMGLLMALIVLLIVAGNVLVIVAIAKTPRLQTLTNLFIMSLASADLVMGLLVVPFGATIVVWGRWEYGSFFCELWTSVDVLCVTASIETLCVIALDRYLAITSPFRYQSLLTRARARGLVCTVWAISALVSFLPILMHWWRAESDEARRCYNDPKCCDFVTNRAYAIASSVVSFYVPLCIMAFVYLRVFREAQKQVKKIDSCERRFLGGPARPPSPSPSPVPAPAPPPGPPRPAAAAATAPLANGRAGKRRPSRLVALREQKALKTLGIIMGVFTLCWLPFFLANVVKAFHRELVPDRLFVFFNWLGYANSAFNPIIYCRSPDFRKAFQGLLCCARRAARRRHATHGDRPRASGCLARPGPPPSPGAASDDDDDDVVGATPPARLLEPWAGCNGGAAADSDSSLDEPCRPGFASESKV
Method: as §1, §2

Adrenergic alpha2A = target: T4, Adrenergic alpha2A (Homo sapiens, UniProt P08913); assay: SafetyScreen44 203630; assay type: binding; settings: 10 μM; [3H]Rauwolscine; recombinant
T4 construct: Eurofins-Panlabs (contract screen) 203630
T4 sequence (P08913 whole entry): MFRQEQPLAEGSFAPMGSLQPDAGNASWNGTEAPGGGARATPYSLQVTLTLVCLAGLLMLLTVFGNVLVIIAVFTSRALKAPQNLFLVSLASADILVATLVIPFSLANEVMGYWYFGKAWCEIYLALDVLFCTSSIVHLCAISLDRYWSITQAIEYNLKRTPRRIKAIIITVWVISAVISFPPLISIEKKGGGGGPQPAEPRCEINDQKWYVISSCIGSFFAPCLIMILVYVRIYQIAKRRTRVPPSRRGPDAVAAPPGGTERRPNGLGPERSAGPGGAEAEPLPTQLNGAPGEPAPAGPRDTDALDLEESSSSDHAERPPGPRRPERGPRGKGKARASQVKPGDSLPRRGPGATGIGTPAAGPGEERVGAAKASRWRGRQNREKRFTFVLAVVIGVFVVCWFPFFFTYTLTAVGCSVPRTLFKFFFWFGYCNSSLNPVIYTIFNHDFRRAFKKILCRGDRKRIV
Method: as §1, §2

Endothelin ETA = target: T5, Endothelin ETA (Homo sapiens, UniProt P25101); assay: SafetyScreen44 224010; assay type: binding; settings: 10 μM; [125I]Endothelin-1; recombinant
T5 construct: Eurofins-Panlabs (contract screen) 224010
T5 sequence (P25101 21-427): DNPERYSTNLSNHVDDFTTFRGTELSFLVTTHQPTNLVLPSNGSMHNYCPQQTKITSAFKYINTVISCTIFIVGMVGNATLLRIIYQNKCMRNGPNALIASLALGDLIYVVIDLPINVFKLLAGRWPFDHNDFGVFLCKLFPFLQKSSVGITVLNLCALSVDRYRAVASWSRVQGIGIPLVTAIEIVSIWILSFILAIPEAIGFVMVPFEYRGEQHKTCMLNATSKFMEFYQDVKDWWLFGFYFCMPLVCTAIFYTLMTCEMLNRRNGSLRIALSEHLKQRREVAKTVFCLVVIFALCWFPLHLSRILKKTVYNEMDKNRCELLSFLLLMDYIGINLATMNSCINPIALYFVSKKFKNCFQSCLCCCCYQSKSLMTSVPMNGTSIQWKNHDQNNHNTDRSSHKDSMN
Method: as §1, §2

Adenosine A2A = target: T6, Adenosine A2A (Homo sapiens, UniProt P29274); assay: SafetyScreen44 200610; assay type: binding; settings: 10 μM; [3H]CGS-21680; recombinant
T6 construct: Eurofins-Panlabs (contract screen) 200610
T6 sequence (P29274 whole entry): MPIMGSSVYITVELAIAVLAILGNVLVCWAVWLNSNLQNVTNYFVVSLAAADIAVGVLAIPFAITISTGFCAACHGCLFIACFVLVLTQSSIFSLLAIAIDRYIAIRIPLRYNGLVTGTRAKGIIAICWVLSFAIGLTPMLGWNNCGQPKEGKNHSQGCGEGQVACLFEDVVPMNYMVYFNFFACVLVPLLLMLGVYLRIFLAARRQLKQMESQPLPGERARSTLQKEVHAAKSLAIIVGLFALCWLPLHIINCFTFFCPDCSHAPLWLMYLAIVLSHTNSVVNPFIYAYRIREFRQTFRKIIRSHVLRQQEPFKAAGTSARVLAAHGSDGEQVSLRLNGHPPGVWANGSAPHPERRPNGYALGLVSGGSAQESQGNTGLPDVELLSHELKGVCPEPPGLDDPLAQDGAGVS
Method: as §1, §2

Cannabinoid CB1 = target: T7, Cannabinoid CB1 (Homo sapiens, UniProt P21554); assay: SafetyScreen44 217050; assay type: binding; settings: 10 μM; [3H]SR141716A; recombinant
T7 construct: Eurofins-Panlabs (contract screen) 217050
T7 sequence (P21554 whole entry): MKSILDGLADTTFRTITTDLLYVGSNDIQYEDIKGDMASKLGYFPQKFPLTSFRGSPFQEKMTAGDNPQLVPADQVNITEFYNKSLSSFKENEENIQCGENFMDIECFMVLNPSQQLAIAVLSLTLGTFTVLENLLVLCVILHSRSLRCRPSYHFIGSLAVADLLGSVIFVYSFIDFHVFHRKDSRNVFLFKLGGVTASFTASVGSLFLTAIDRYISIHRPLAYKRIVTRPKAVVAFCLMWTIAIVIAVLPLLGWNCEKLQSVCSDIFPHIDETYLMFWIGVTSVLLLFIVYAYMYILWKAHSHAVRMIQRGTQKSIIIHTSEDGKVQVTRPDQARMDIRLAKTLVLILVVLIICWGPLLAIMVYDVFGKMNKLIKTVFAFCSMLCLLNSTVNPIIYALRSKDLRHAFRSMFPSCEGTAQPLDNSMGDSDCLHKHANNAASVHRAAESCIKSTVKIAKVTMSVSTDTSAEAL
Method: as §1, §2

rats = settings: rat, in vivo; cited from earlier work
hSERT = hSERT (Homo sapiens, UniProt P31645); assay: SERT-mediated cell uptake assay (fluorescence uptake inhibition); assay type: cell-based
Chain of hSERT (P31645 whole entry): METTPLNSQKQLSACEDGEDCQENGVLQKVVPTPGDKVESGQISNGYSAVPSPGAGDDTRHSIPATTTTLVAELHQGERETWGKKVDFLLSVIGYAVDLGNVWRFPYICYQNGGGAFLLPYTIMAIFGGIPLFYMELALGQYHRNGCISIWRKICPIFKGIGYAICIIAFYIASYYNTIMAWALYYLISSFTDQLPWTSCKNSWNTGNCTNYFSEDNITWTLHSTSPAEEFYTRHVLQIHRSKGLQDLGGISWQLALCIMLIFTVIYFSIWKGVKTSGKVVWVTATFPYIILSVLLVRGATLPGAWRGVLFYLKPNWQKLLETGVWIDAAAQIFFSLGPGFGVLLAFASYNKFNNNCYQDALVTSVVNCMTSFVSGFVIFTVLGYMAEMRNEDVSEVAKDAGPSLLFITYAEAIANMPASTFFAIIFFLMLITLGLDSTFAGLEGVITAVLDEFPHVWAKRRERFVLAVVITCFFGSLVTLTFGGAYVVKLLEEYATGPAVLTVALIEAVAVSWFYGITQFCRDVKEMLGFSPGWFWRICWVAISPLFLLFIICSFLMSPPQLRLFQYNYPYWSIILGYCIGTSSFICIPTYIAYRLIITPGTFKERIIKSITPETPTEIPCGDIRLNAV

Histamine H1 = target: T8, Histamine H1 (Homo sapiens, UniProt P35367); assay: SafetyScreen44 239610; assay type: binding; settings: 10 μM; [3H]Pyrilamine; recombinant
T8 construct: purchased Eurofins-Panlabs (contract screen SafetyScreen44) assay ID 239610
T8 sequence (P35367 whole entry): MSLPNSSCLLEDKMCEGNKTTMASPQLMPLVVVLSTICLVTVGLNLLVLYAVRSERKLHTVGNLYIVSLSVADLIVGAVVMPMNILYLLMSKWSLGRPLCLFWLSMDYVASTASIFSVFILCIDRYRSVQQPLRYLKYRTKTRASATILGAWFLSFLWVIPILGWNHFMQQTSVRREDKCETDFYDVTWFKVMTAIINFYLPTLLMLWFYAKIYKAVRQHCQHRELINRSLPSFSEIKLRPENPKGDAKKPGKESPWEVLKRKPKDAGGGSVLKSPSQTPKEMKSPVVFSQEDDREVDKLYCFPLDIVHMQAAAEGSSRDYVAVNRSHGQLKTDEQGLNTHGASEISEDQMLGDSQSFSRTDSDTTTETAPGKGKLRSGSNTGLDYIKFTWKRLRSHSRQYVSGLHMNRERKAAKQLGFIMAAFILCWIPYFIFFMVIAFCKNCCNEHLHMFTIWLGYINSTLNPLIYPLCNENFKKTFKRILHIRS
Method: as §1, §2

Adrenergic β2 = target: T9, Adrenergic β2 (Homo sapiens, UniProt P07550); assay: SafetyScreen44 204110; assay type: binding; settings: 10 μM; [3H]CGP-12177; recombinant
T9 construct: Eurofins-Panlabs (contract screen) 204110
T9 sequence (P07550 whole entry): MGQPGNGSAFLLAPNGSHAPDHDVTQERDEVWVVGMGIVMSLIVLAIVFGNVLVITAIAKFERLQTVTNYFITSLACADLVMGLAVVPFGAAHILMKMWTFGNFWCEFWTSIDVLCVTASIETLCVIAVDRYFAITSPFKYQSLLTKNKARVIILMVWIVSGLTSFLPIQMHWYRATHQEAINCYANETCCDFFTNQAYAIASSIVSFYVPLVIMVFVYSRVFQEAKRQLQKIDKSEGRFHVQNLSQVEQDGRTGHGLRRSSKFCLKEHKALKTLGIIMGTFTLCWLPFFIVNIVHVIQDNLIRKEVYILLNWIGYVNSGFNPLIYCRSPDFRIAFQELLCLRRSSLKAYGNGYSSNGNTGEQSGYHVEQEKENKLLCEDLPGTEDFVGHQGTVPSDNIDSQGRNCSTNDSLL
Method: as §1, §2

mice = assay: Elevated plus maze (EPM); assay type: in vivo, mouse; settings: 30 minutes and 4 hours post single s.c. injection
Method: FIGS. 7A-D Effect of Ariadne in behavioral conflict paradigms. (a) Survival plot of effect of (R)-Ariadne (10 mg/kg) on latency to feed in the novelty suppressed feeding (NSF) test 7 days post a single drug administration. (b) Effect of 6 mg/kg and 10 mg/kg (R)-Ariadne on latency to feed in the novelty suppressed feeding (NSF) test 7 days post a single drug administration. (c) Effect of (R)-Ariadne and (±)-DOPR on the time spent in the open vs closed arms and (d) corresponding arm entries 30 minutes and 4 hours post a single subcutaneous injection.

[2] = test system: auxilin knockout (KO) mice; assay: Balance beam test in auxilin KO mouse model of Parkinson's Disease; assay type: in vivo; settings: Aux-KO mice 9-12 months; 10 mg/kg intraperitoneal; 15 to 30 minutes after treatment
Description: (§3) R-Ariadne ameliorates motor abnormalities in a mouse model of Parkinson's Disease. In the 1978 patent from the Bristol Laboratories, the inventors noted complete remission of Parkinson's symptoms in two patients (Partyka el al., U.S. Pat. No. 4,105,695, 1978). To address and examine these claims via reverse translation in mice, we used a novel model of PD based on auxilin knockout (KO) mice (Vidyadhara et al., 2022). Auxilin is a clathrin uncoating protein that participates in clathrin mediated endocytosis of synaptic vesicles (SV), enabling SV recycling and neurotransmission (Vidyadhara et al., 2022). Loss-of-function mutations in auxilin (DNAJC6/PARK19) cause PD. Auxilin KO mice display cardinal features of PD such as progressive motor deficits, nigral dopaminergic neuronal loss, α-synuclein pathology, and neuroinflammation. 9-12 month old Aux-KO mice were previously shown to respond to L-DOPA treatment, which ameliorated PD-like motor abnormalities (Vidyadhara et al., 2022). […] The balance beam test evaluates fine motor skills such as ability to walk on a raised narrow beam to reach a safety box, measured as a number of runs/minute and time taken to cross the beam (FIGS. 9-10). […]

[3] = test system: auxilin knockout (KO) mice; assay: Hind limb clasping in auxilin KO mouse model of Parkinson's Disease; assay type: in vivo; settings: Aux-KO mice; 10 mg/kg intraperitoneal; 15 to 30 minutes after treatment
Description: as §3

[4] = test system: auxilin knockout (KO) mice; assay: Open field test in auxilin KO mouse model of Parkinson's Disease; assay type: in vivo; settings: Aux-KO mice; 10 mg/kg intraperitoneal; confounded by learning effects

| Structure (SMILES) | % Response [1] [%] | % Response (Sodium Channel, Site 2) [%] | % Response (Histamine H2) [%] | % Response (Muscarinic M2) [%] | % Response (Potassium Channel [KA]) [%] | % Response (Adrenergic β1) [%] | % Response (Adrenergic alpha2A) [%] | % Response (Endothelin ETA) [%] | % Response (Adenosine A2A) [%] | % Response (Cannabinoid CB1) [%] | substitution for MDMA stimulus (rats) | substitution in LSD trained animals (rats) | IC50 (hSERT) [µM] | % Response (Histamine H1) [%] | % Response (Adrenergic β2) [%] | entries and time spent in the open arms (mice) | number of balance beam runs per minute [2] | clasping duration [3] | hindlimb clasping score [3] | overall locomotory deficits in the open field [4] |
| --- | --- | --- | --- | --- | --- | --- | --- | --- | --- | --- | --- | --- | --- | --- | --- | --- | --- | --- | --- | --- |
| CCC(N)Cc1cc(OC)c(C)cc1OC (racemic) [Compound 32, 1-(2,5-dimethoxy-4-methylphenyl)butan-2-amine] | −13 | 47 | 21 | 0 | −6 | 17 | 34 | −6 | 10 | 1 | full substitution | substituted responding | > 50 | 13 | 22 |  |  |  |  |  |
| CC[C@@H](N)Cc1cc(OC)c(C)cc1OC [(R)-Ariadne] |  |  |  |  |  |  |  |  |  |  |  |  |  |  |  | acute anxiogenic-like effect | significantly higher and comparable to WT mice | down to zero | down to zero | partially rescued |
